The text below walks through data of patent publication US5464748A, “Method of detecting and monitoring levels of 3'-amino-3'-deoxythymidine in body fluids and antibodies for same” (The UAB Research Foundation, priority 1993, dated 1995).

Data set [1] has as its system granulocyte macrophage colony-forming units (CFU-GM). Nature of the data set: toxicity to granulocyte macrophage colony-forming units. The settings on record: compared with AZT. The class given is cell-based.
Data set [2] has as its system erythroid burst-forming units (BFU-E). In words: toxicity to erythroid burst-forming units. It is filed as cell-based. The following applies: compared with AZT.
Data set [3] concerns antiviral activity of AZT. In words: effect of AMT on antiviral activity of AZT.
Data set [4] can be described thus: pharmacokinetics and metabolism of AZT: hepatic catabolites. The settings on record: in addition to GAZT. It is filed as in vivo, human.
Data set [5] has as its system Human Immunodeficiency Virus (HIV). The settings on record: HIV infected patients; cited from earlier work.
A further data set relates to bone marrow cells. The settings on record: AZT treatment; cited from earlier work.
The conditions of data set [6]: recently discovered; Cretton et al 1991; cited from earlier work.

Take `Cc1cn([C@H]2C[C@H](N)[C@@H](CO)O2)c(=O)[nH]c1=O` [AMT, 3'-amino-3'-deoxythymidine]: in data set [1], the “toxicity to CFU-GM relative to AZT” value is listed as “many more times toxic”. Besides, in data set [2], the “toxicity to BFU-E relative to AZT” value is reported as “many more times toxic”. In data set [3] (concentrations as low as a 1:1 molar ratio with AZT), the “effect on the antiviral activity of AZT” value is reported as “adverse effect on the antiviral activity of AZT”. Further, in data set [3] (stated as believed, no concentration given), the “interference with the antiviral activity of AZT” value is reported as “believed to interfere with the antiviral activity of AZT”.

On to `Cc1cn([C@H]2C[C@H](N=[N+]=[N-])[C@@H](CO)O2)c(=O)[nH]c1=O` [AZT, 3'-azido-3'-deoxythymidine], for which the “hepatic catabolites of AZT” value in data set [4] was 3'-amino-3'-deoxythymidine (AMT) and its 5'-O-glucuronide(GAMT). Also, in data set [5], the clinical benefits result is “increased survival, decreased number of opportunistic infections, and partial improvement in neurologic manifestations”. In addition, in the data set on bone marrow cells, the “toxicity to bone marrow cells” value is “toxicity to bone marrow cells, manifested by anemia and neutropenia”. In addition, the “hepatic catabolite of AZT” value in data set [6] is 3'-amino-3'-deoxythymidine (AMT).
